Laboratory results taken from patent US20070196484A1, “Poorly water-soluble drug-containing solid formulation” (priority 2004, published 2007).
Converted amounts (≈) assume the structure as drawn.

Key:
SD male rats [1] = assay: Intra-ileal administration test, onset of catharsis; type: in vivo, rat; conditions: bisacodyl 2 mg/kg, DSS 3.2 mg/kg, observed 24 hours, FIG. 3
Procedure: (§1) SD male rats were used in 10 animals per group. Test substances used were bisacodyl alone (2 mg/kg), DSS alone (3.2 mg/kg) and bisacodyl (2 mg/kg)+DSS (3.2 mg/kg).
A rat underwent laparotomy under ether anesthesia and a test substance was injected via a syringe into an ileum at 20 cm to the mouth from the ileocecum at a dose of 1 mL/kg rat weight.

SD male rats [2] = assay: Oral administration test, onset of catharsis; type: in vivo, rat; conditions: bisacodyl 2 mg/kg, DSS 3.2 mg/kg, observed 24 hours, FIG. 3
Procedure: as §1

[3] = Solubility of bisacodyl in the co-existence of dioctyl sodium sulfosuccinate; type: physicochemical; conditions: for solubility at 5 h: thermodynamic from solid
Procedure: Variation in solubility of bisacodyl was studied in the co-existence of bisacodyl and dioctyl sodium sulfosuccinate. Bisacodyl was dispersed in purified water and the dispersion was shaken under given conditions for 5 hours. The resulting liquid was centrifuged at 3000 min^−1 for 5 min. Then, the supernatant was collected and the amount of dissolved bisacodyl was determined by HPLC. In a similar manner, bisacodyl was dispersed in solutions containing dioctyl sodium sulfosuccinate at 0.07%, 0.14% and 0.35%. Each dispersion was shaken and centrifuged at 3000 min^−1 for 5 min. Then, the supernatant was collected and the amount of dissolved bisacodyl was determined by HPLC.

SMILES | Cathartic effect (catharsis incidence) (SD male rats [1]) | Cathartic effect (catharsis incidence) (SD male rats [2]) | solubility at 5 h ([3]; 0.07% dioctyl sodium sulfosuccinate aqueous solution, aqueous with cosolvent or surfactant or cyclodextrin, Sample 1: 0.07% DSS aq.) [µg/mL] | solubility at 5 h ([3]; 0.14% dioctyl sodium sulfosuccinate aqueous solution, aqueous with cosolvent or surfactant or cyclodextrin, Sample 2: 0.14% DSS aq.) [µg/mL] | solubility at 5 h ([3]; 0.35% dioctyl sodium sulfosuccinate aqueous solution, aqueous with cosolvent or surfactant or cyclodextrin, Sample 3: 0.35% DSS aq.) [µg/mL] | Proportion to control (solubility of bisacodyl) ([3]; Sample 1: 0.07% DSS aq.) [%] | Proportion to control (solubility of bisacodyl) ([3]; Sample 2: 0.14% DSS aq.) [%] | Proportion to control (solubility of bisacodyl) ([3]; Sample 3: 0.35% DSS aq.) [%] | solubility at 5 h ([3]; Control: purified water, 0% DSS, shaken 5 hours) [µg/mL]
CCCCC(CC)COC(=O)CC(C(=O)OCC(CC)CCCC)S(=O)(=O)[O-].[Na+] (stereo not drawn) [DSS, Dioctyl sodium sulfosuccinate] | cathartic effect was not observed | cathartic effect was not observed |  |  |  |  |  |  | 
CC(=O)Oc1ccc(C(c2ccc(OC(C)=O)cc2)c2ccccn2)cc1 [Bisacodyl] |  |  | 3.62 (≈ 10 µM) | 4.51 (≈ 12.5 µM) | 12.7 (≈ 35.1 µM) | 191.5 | 238.6 | 672.0 | 1.89 (≈ 5.23 µM)
